Assay results published in patent US8927500B2, “Peptidomimetic macrocycles” (Aileron Therapeutics, Inc., priority 2012, dated 2015).
Like-named read-outs stand apart in the source and are kept apart here.

How the values were obtained:
[1] = tested on: Caspase 3; assay: Caspase 3 detection assay in SJSA1 cells; assay type: cell-based; conditions: 48 h, Caspase 3 activation over DMSO-treated cells; for caspase 0.3 uM: 0.3 uM peptide; for caspase 10 uM: 10 uM peptide; for caspase 30 uM: 30 uM peptide; for caspase 3 uM: 3 uM peptide; for caspase 1 uM: 1 uM peptide
[2] = tested on: SJSA-1 cells; assay: Cell lysis by peptidomimetic macrocycles (LDH release); assay type: cell-based; conditions: 1 h at 37C
Method: On the day of the assay, media was exchanged with RPMI 1% FBS media, 90 uL of media per well.
10 mM stock solutions of the peptidomimetic macrocycles were prepared in 100% DMSO.
The negative control (non-lytic) sample was 0.5% DMSO alone and positive control (lytic) samples include 10 uM Melittin and 1% Triton X-100.
Cell plates were incubated for 1 hour at 37C. After the 1 hour incubation, the morphology of the cells is examined by microscope and then the plates were centrifuged at 1200 rpm for 5 minutes at room temperature. 40 uL of supernatant for each peptidomimetic macrocycle and control sample is transferred to clear assay plates.

[3] = target: MDM2 (Homo sapiens, UniProt Q00987); assay: Competitive fluorescence polarization assay for MDM2; assay type: binding; conditions: competitive FP assay, MDM2
[4] = target: T1, MDMX (Homo sapiens, UniProt O15151); assay: Competitive fluorescence polarization assay for MDMX; assay type: binding; conditions: competitive FP assay
T1 sequence (O15151 1-125): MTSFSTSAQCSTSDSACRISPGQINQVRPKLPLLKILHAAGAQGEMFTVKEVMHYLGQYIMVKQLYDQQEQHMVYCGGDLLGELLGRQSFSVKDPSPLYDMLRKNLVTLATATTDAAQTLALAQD

Chain of MDM2 (Q00987 1-125): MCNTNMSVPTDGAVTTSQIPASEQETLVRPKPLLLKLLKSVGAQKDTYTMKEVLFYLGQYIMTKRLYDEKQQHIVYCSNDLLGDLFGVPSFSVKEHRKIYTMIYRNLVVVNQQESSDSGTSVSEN

Compound | caspase 0.3 uM [1] | caspase 10 uM [1] | caspase 30 uM [1] | 6.25 uM % Lysed cells (1 h LDH) [2] | 25 uM % Lysed cells (1 h LDH) [2] | IC50 ([3]; read-out: IC50 (MDM2)) | Ki ([3]; read-out: Ki (MDM2)) | IC50 ([4]; read-out: IC50 (MDMX)) | Ki ([4]; read-out: Ki (MDMX)) | caspase 3 uM [1] | 50 uM % Lysed cells (1 h LDH) [2] | caspase 1 uM [1] | IC50 ([3]; IC50 (MDM2)) | Ki ([3]; Ki (MDM2)) | IC50 ([4]; IC50 (MDMX)) | Ki ([4]; Ki (MDMX))
CC(=O)N[C@@H](CC(C)C)C(=O)N[C@H](C(=O)N[C@@H](Cc1ccc(F)c(F)c1)C(=O)N[C@]1(C)CCCCCCC=CCCC[C@@](C)(C(=O)N[C@@H](CO)C(=O)N[C@@H](C)C(=O)N[C@@H](C)C(N)=O)NC(=O)[C@H](CC(C)C)NC(=O)[C@H](CCC(N)=O)NC(=O)[C@H](C)NC(=O)[C@H](Cc2c[nH]c3ccccc23)NC(=O)[C@H](Cc2ccc(O)cc2)NC(=O)[C@H](CCC(=O)O)NC1=O)[C@@H](C)O (single isomer, unassigned) [compound 158] | 1 | 5 | 16.33 | 0% | −2% | < 10 nM | < 10 nM | 100 to 1000 nM | 10 to 100 nM |  |  |  |  |  |  | 
CC[C@H](C)[C@H](NC(=O)[C@H](C)NC(=O)[C@H](C)NC(=O)[C@]1(C)CCCC=CCCCCCC[C@@](C)(NC(=O)[C@H](Cc2ccccc2)NC(=O)[C@@H](NC(=O)[C@H](CCC(=O)O)NC(C)=O)[C@@H](C)O)C(=O)N[C@@H](CCC(=O)O)C(=O)N[C@@H](Cc2c[nH]cn2)C(=O)N[C@@H](Cc2c[nH]c3ccccc23)C(=O)N[C@@H](C)C(=O)N[C@@H](CCC(N)=O)C(=O)N[C@@H](CC(C)C)C(=O)N1)C(=O)N[C@H](C)C(N)=O (single isomer, unassigned) [compound 175] | 1 | 12 | 21 | 3% | 1% | < 10 nM | < 10 nM | 100 to 1000 nM | 10 to 100 nM | 5 | 0% |  |  |  |  | 
CC[C@H](C)[C@H](NC(=O)[C@H](C)NC(=O)[C@H](C)NC(=O)[C@]1(C)CCCC=CCCCCCC[C@@](C)(NC(=O)[C@H](Cc2ccccc2)NC(=O)[C@@H](NC(=O)[C@H](CC(C)C)NC(C)=O)[C@@H](C)O)C(=O)N[C@@H](C)C(=O)N[C@@H](Cc2ccc(O)cc2)C(=O)N[C@@H](Cc2c[nH]c3ccccc23)C(=O)N[C@@H](C)C(=O)N[C@@H](C)C(=O)N[C@@H](CC(C)C)C(=O)N1)C(=O)N[C@H](C)C(N)=O (single isomer, unassigned) [compound 203] | 1 | 12 | 10 | 0% | 2% | 10 to 100 nM | < 10 nM | 100 to 1000 nM | 10 to 100 nM | 3 | 2% |  |  |  |  | 
CC(=O)N[C@@H](CC(C)C)C(=O)N[C@H](C(=O)N[C@@H](Cc1ccccc1)C(=O)N[C@]1(C)CCCCCCC=CCCC[C@@](C)(C(=O)N[C@@H](C)C(=O)N[C@@H](C)C(=O)N[C@@H](Cc2ccccc2)C(=O)N[C@H](C)C(N)=O)NC(=O)[C@H](CC(C)C)NC(=O)[C@H](CCC(N)=O)NC(=O)[C@H](C)NC(=O)[C@H](Cc2c[nH]c3ccccc23)NC(=O)[C@H](Cc2ccc(O)cc2)NC(=O)[C@H](CCC(=O)O)NC1=O)[C@@H](C)O (single isomer, unassigned) [compound 218] | 1 | 8 | 18 | 0% | −4% | < 10 nM | < 10 nM | 100 to 1000 nM | 10 to 100 nM | 2 | 1% |  |  |  |  | 
CC(=O)N[C@@H](CC(C)C)C(=O)N[C@H](C(=O)N[C@@H](Cc1ccccc1)C(=O)N[C@]1(C)CCCCCCC=CCCC[C@@](C)(C(=O)N[C@@H](C)C(=O)N[C@@H](C)C(=O)N[C@H](C(=O)N[C@H](C)C(N)=O)C(C)C)NC(=O)[C@H](CC(C)C)NC(=O)[C@H](CCC(N)=O)NC(=O)[C@H](C)NC(=O)[C@H](Cc2c[nH]c3ccccc23)NC(=O)[C@H](Cc2ccc(O)cc2)NC(=O)[C@H](CCC(=O)O)NC1=O)[C@@H](C)O (single isomer, unassigned) [compound 221] | 1 | 6 | 12 | 3% | 3% | < 10 nM | < 10 nM | 10 to 100 nM | 10 to 100 nM | 3 | 11% |  |  |  |  | 
CC(=O)N[C@@H](CCC(=O)O)C(=O)N[C@H](C(=O)N[C@@H](Cc1ccccc1)C(=O)N[C@]1(C)CCCCCCC=CCCC[C@@](C)(C(=O)N[C@@H](C)C(=O)N[C@@H](C)C(=O)N[C@@H](C)C(=O)N[C@@H](C)C(=O)N[C@@H](C)C(=O)N[C@H](C)C(N)=O)NC(=O)[C@H](CC(C)C)NC(=O)[C@H](CCC(N)=O)NC(=O)[C@H](C)NC(=O)[C@H](Cc2c[nH]c3ccccc23)NC(=O)[C@H](Cc2ccc(O)cc2)NC(=O)[C@H](CCC(=O)O)NC1=O)[C@@H](C)O (single isomer, unassigned) [compound 341] | 3 | 14 | 21 | 0% | 0% |  |  |  |  | 11 | 0% | 8 | 10 to 100 nM | < 10 nM | 10 to 100 nM | < 10 nM
CC(=O)N[C@@H](CC(C)C)C(=O)N[C@H](C(=O)N[C@@H](Cc1ccccc1)C(=O)N[C@]1(C)CCCCCCC=CCCC[C@@](C)(C(=O)N[C@@H](C)C(=O)N[C@@H](C)C(=O)N[C@@H](C)C(=O)N[C@@H](C)C(=O)N[C@@H](C)C(=O)N[C@@H](C)C(=O)N[C@H](C)C(N)=O)NC(=O)[C@H](CC(C)C)NC(=O)[C@H](CCC(N)=O)NC(=O)[C@H](C)NC(=O)[C@H](Cc2c[nH]c3ccccc23)NC(=O)[C@H](Cc2ccc(O)cc2)NC(=O)[C@H](CCC(=O)O)NC1=O)[C@@H](C)O (single isomer, unassigned) [compound 343] | 1 | 5 | 29 | 0% | 0% |  |  |  |  | 2 | 0% | 1 | 10 to 100 nM | < 10 nM | 10 to 100 nM | < 10 nM
CC(=O)N[C@@H](CC(C)C)C(=O)N[C@H](C(=O)N[C@@H](Cc1ccccc1)C(=O)N[C@]1(C)CCCCCCC=CCCC[C@@](C)(C(=O)N[C@@H](C)C(=O)N[C@@H](C)C(=O)N[C@@H](C)C(=O)N[C@@H](C)C(=O)N[C@@H](C)C(=O)N[C@H](C)C(N)=O)NC(=O)[C@H](CC2CCC2)NC(=O)[C@H](CCC(N)=O)NC(=O)[C@H](C)NC(=O)[C@H](Cc2c[nH]c3ccccc23)NC(=O)[C@H](Cc2ccc(O)cc2)NC(=O)[C@H](CCC(=O)O)NC1=O)[C@@H](C)O (single isomer, unassigned) [compound 347] | 2 | 8 | 29 | 0% | 0% | 10 to 100 nM | < 10 nM | 10 to 100 nM | 10 to 100 nM | 5 | 0% | 3 |  |  |  | 
CC(=O)N[C@@H](C)C(=O)N[C@@H](CC(C)C)C(=O)N[C@H](C(=O)N[C@@H](Cc1ccccc1)C(=O)N[C@]1(C)CCCCCCC=CCCC[C@@](C)(C(=O)N[C@@H](CO)C(=O)N[C@@H](C)C(=O)N[C@@H](C)C(=O)N[C@H](C)C(N)=O)NC(=O)[C@H](CC2CCC2)NC(=O)[C@H](CCC(N)=O)NC(=O)[C@H](C)NC(=O)[C@H](Cc2c[nH]c3ccccc23)NC(=O)[C@H](Cc2ccc(O)cc2)NC(=O)[C@H](CCC(=O)O)NC1=O)[C@@H](C)O (single isomer, unassigned) [compound 355] | 1 | 13 | 30 | 0% | 0% | < 10 nM | < 10 nM | 10 to 100 nM | < 10 nM | 11 | 0% | 4 |  |  |  | 
CC(=O)N[C@@H](C)C(=O)N[C@@H](CC(C)C)C(=O)N[C@H](C(=O)N[C@@H](Cc1ccccc1)C(=O)N[C@]1(C)CCCCCCC=CCCC[C@@](C)(C(=O)N[C@@H](CO)C(=O)N[C@@H](C)C(=O)N[C@@H](C)C(=O)N[C@@H](C)C(=O)N[C@H](C)C(N)=O)NC(=O)[C@H](CC2CCC2)NC(=O)[C@H](CCC(N)=O)NC(=O)[C@H](C)NC(=O)[C@H](Cc2c[nH]c3ccccc23)NC(=O)[C@H](Cc2ccc(O)cc2)NC(=O)[C@H](CCC(=O)O)NC1=O)[C@@H](C)O (single isomer, unassigned) [compound 357] | 2 | 15 | 23 | 0% | 0% | < 10 nM | < 10 nM | 10 to 100 nM | < 10 nM | 11 | 0% | 7 |  |  |  | 
